Measurements published in US6420409B1, “Benzimidazole derivatives” (Fujisawa Pharmaceutical Co., Ltd., priority 1997, dated 2002).

Tested on: db/db mice
Test: Test for Activity of Decreasing Plasma Glucose using db/db Mice
Assay type: in vivo
Details: female db/db mice, dose of 10 mg/kg, mixed with powdered chow (0.01%), 14 days, difference between db/db and +/+ mouse groups defined as 100%
Description: Test Example: Test for Activity of Decreasing Plasma Glucose using db/db Mice
1-(Isoquinolin-3-ylmethyl)-2-methyl-6-(1-pentanesulfonyl-carbamoyl)benzimidazole (13)
Five-week-old female mice [C57BL/KsJ-dbm db+/db+, C57BL/KsJ-dbm +m/+m (Jackson Laboratory) were purchased, and were kept for 2 to 3 weeks. Then, these mice were used in the test.
A test compound was mixed with a powdered chow (CE-2, made by Nippon Clea) using a mortar. The mixing ratio was 0.01%. The mixed chow was changed twice a week. The feed amount and the remaining amount were recorded, and the intake was calculated from the difference therebetween.
The female db/db mice were grouped according to the body weight, the plasma glucose and the plasma triglyceride concentrations. […] Plasma glucose, triglyceride, and insulin concentrations were measured on day 0 and day 14 as well as plasma glucose and triglyceride concentrations on day 7. The body weight was measured on day 0, day 7 and day 14. […]
The plasma glucose was measured by a glucose oxidase method (Glucose CII-Test Wako made by Wako Pure Chemical Industries, Ltd.) using from 10 to 15 μl of plasma. The plasma triglyceride concentration was measured by a GPO-p-chlorophenol method (Triglyceride G-Test Wako made by Wako Pure Chemical Industries, Ltd.) or a GPO-DAOS method (Triglyceride E-Test Wako) using from 10 to 15 μl of plasma. […]

`CCCCCS(=O)(=O)NC(=O)c1ccc2nc(C)n(Cc3cc4ccccc4cn3)c2c1` [Compound 13, 1-(Isoquinolin-3-ylmethyl)-2-methyl-6-(1-pentane-sulfonylcarbamoyl)benzimidazole] was tested, and the “plasma glucose decreasing activity” value was 44% and the TG concentration-decreasing activity (plasma triglyceride) was 77%.
